Laboratory results published in patent publication US7358233B2, “Tetronic acid derivative” (Toudai TLO, Ltd, priority 2001, dated 2008).

Key:
[1] = test system: HSP70 heat shock protein; assay: Transcriptional activity of HSP70 (no data shown); assay type: cell-based
[2] = test system: GRP78; assay: Western blotting of GRP78 induction in HT-29 cells under endoplasmic reticulum stress; assay type: cell-based; conditions: pretreated 30 min, 18 hours
Experimental: Specifically, […] HT-29 and HT1080 were cultured in RPMI1640 medium and pretreated for 30 min with 3 μM and 30 μM VST. Next, the GRP78 level was detected 18 hours after each endoplasmic reticulum stress treatment by Western blotting (FIG. 10). […] This phenomenon could be elucidated for the first time by the use of VST.

[3] = test system: MCF-7; assay: Direct growth suppression, MTT method; assay type: cell-based; conditions: Homo sapiens, MCF7, 24 hours, read-out: IC50 of VST
Text: (§1) In this Example, HeLa cells and various other culture cells were used to measure the survival rate during the above-mentioned reporter analysis and VST addition. Specifically, in addition to HeLa cells (human cervical cancer cells), MCF-7 (human breast cancer cells), PC12NH (rat pheochromocytoma), MDA-MB-231 (human breast cancer cells), TIG-3 (human normal fibroblast cells), HeLa 786C cells (human cervical cancer cells), Saos-2 (telomerase and p53-deficient human cancer cells) and SUSM-1 (telomerase-deficient human cancer cells) were used.
(§2) The direct growth suppression activity of VST on these cells was measured using the MTT method. 100 μL cell suspension (5×10^4/mL) of each of the above-mentioned cells was dispensed into each well of a 96-well plate and cultured for 6 hours at 37° C. After culturing, VST solution diluted stepwise as in Example 4 was added thereto and cultured for another 24 hours. After culturing for 24 hours, 0.05 g/mL MTT solution (10 μL) was added to each well and incubation was performed at 37° C. for 4 hours. The medium was then removed, DMSO (100 μL) was added, and the absorbance at 530 nm was measured (FIG. 8).

[4] = test system: Saos-2; assay: Direct growth suppression, MTT method; assay type: cell-based; conditions: Homo sapiens, 24 hours, read-out: IC50 of VST
Text: as §1, §2

[5] = test system: MDA-MB-231; assay: Direct growth suppression, MTT method; assay type: cell-based; conditions: Homo sapiens, 24 hours, read-out: IC50 of VST
Text: as §1, §2

[6] = test system: TIG-3; assay: Direct growth suppression, MTT method; assay type: cell-based; conditions: Homo sapiens, 24 hours, read-out: IC50 of VST
Text: as §1, §2

[7] = test system: HeLa786C; assay: Direct growth suppression, MTT method; assay type: cell-based; conditions: Homo sapiens, 24 hours, read-out: IC50 of VST
Text: as §1, §2

[8] = test system: SUSM-1; assay: Direct growth suppression, MTT method; assay type: cell-based; conditions: Homo sapiens, 24 hours, read-out: IC50 of VST
Text: as §1, §2

[9] = test system: PC12NH; assay: Direct growth suppression, MTT method; assay type: cell-based; conditions: Rattus norvegicus, 24 hours, read-out: IC50 of VST
Text: as §1, §2

[10] = test system: HeLa cells; assay: Direct growth suppression, MTT method; assay type: cell-based; conditions: Homo sapiens, 24 hours, read-out: IC50 of VST
Text: as §1, §2

[11] = test system: GRP78 promoter; assay: GRP78 promoter luciferase reporter analysis in HeLa78C6 cells, with tunicamycin-induced endoplasmic reticulum stress; assay type: cell-based, human
Experimental: Screening for natural substances that may regulate the expression of GRP78 was performed. Specifically, herbal medicines, and respective metabolites of fungus and actinomyces were prepared as test samples. A screening system was prepared as follows. A GRP78 promoter region (−132 to +7) comprising three ERSE was inserted into the KpnI-BglII site of the multicloning site of pGL3-basic vector (Promega), and a luciferase gene was linked as a reporter gene downstream of the GRP78 promoter to construct a vector. […]
The cell suspension (100 μL) was dispensed into each well of a 96-well plate and incubated at 37° C. in 5% CO2 for 6 hours. […] Then, luciferase activity of the cells was measured using a luciferase measurement kit (Luciferase Assay System: Promega, cat# E1501) following the instruction attached to the kit.
The main culture was separated into culture supernatant and mycelial cake by centrifugation. Similar to Example 1, the activities to suppress GRP78 expression were measured by the reporter analysis method for the culture supernatant and mycelial cake product that was obtained by homogenizing the mycelial cake, respectively. […] Then, luciferase activity of the cells was measured using a luciferase measurement kit.
Using pure VST purified in Example 3, its activity to suppress GRP78 promoter expression was quantitated. […]

[12] = test system: HT-29 cells; assay: Colony formation of HT-29 cells under endoplasmic reticulum stress conditions; assay type: cell-based
Experimental: HT-29 cells were pretreated for 30 min with each concentration of VST, and then subjected to stress treatment with each of the endoplasmic reticulum stresses, i.e., tunicamycin, calcium ionophore A23187, glucose starvation and 2-DG, for 18 hours. Subsequently, the cells were cultured for 1 week […], and then colonies were measured by crystal violet staining.

How did the “influence on the transcriptional activity of HSP70 heat shock protein” value [1] turn out when `CC/C1=C\C(CO)CC(C)C(OC2CC(O)C(OC3CC(OC)C(OC4CC(O)C(O)C(C)O4)C(C)O3)C(C)O2)C(C)CCCC2(C)C=C(C)C(C)CC23OC(=O)C(=C3O)C(=O)C2(CC)C1C(C)=CC1C(O)CC(=O)C(C)C12` (stereo not shown) [VST, versipelostatin] was run?
Its value is “no influence”.

And the “induction of GRP78 by 2-DG” value ([2]; 3 μM VST)?
Its value is “inhibits the induction of GRP78”.

And the “GRP78 induction due to tunicamycin treatment” value ([2]; 30 μM VST)?
Its value is “did not inhibit GRP78 induction”.

What about the IC50 [3] of the same molecule?
The IC50 was > 100 µM.

What about the IC50 [4] of the same molecule?
The IC50 was > 100 µM.

What about the IC50 [5] of the same molecule?
Its IC50 is > 100 µM.

What about the IC50 [6] of the same molecule?
Its IC50 is > 100 µM.

And the IC50 [7]?
Its IC50 is 52.9 µM.

And the IC50 [8]?
The IC50 was > 100 µM.

What about the IC50 [9] of the same molecule?
The IC50 was > 100 µM.

And the IC50 [10]?
The IC50 was > 100 µM.

What about the “suppression of the increase of luciferase activity (GRP78 promoter expression) due to tunicamycin” value ([11]; sample added 30 min before tunicamycin 2 μg/mL, 18 hours) of the same molecule?
The value was “suppressed in concordance with the increase in VST concentration”.

And the “luciferase expression from the GRP78 promoter, VST alone” value ([11]; without tunicamycin addition)?
The value was “did not affect the expression of luciferase”.

What about the “cell growth suppression (colony formation)” value (“cell growth suppression” for short) ([12]; 2-DG treatment 18 hours, 1 week culture (FIG. 11D)) of the same molecule?
The value was “strong cell growth suppression effect”.

And the “cell growth suppression” value ([12]; glucose starvation 18 hours, 1 week culture (FIG. 11C))?
The value was “strong cell growth suppression effect”.

What about the “cell growth suppression” value ([12]; tunicamycin treatment 18 hours, 1 week culture (FIG. 11A)) of the same molecule?
The value was “did not show suppression on cell growth”.
